{
  "source": "patent US20220389355A1",
  "about": "“CELL AGGREGATE, PRODUCING METHOD FOR MANUFACTURING CELL AGGREGATE, PRODUCING KIT FOR CELL AGGREGATE, AND CHEMICAL COMPOUND EVALUATING METHOD USING CELL AGGREGATE” (THE JAPAN WOOL TEXTILE CO., LTD., priority 2019, published 2022)",
  "key": {"[1]": {"tested_on": "cardiomyocyte multicellular construct (human iPS cell derived cardiomyocytes)", "assay": "Example 8: calcium imaging, ratio of specimens with arrhythmia waveform", "details": "for Ratio of specimens that exhibited the calcium ion signal waveform corresponding to arrhythmia, Dose 1 (%): Dose 1 of Table 5: azithromycin 1 μM, chloroquine or hydroxychloroquine 0.3 μM; for Ratio of specimens that exhibited the calcium ion signal waveform corresponding to arrhythmia, Dose 1 (%) / Ratio of specimens that exhibited the calcium ion signal waveform corresponding to arrhythmia, Dose 2 (%) / Ratio of specimens that exhibited the calcium ion signal waveform corresponding to arrhythmia, Dose 3 (%) / Ratio of specimens that exhibited the calcium ion signal waveform corresponding to arrhythmia, Dose 4 (%): alone or with azithromycin fixed to 3 μM; for Ratio of specimens that exhibited the calcium ion signal waveform corresponding to arrhythmia, Dose 2 (%): Dose 2 of Table 5: azithromycin 3 μM, chloroquine or hydroxychloroquine 1 μM; for Ratio of specimens that exhibited the calcium ion signal waveform corresponding to arrhythmia, Dose 3 (%): Dose 3 of Table 5: azithromycin 10 μM, chloroquine or hydroxychloroquine 3 μM; for Ratio of specimens that exhibited the calcium ion signal waveform corresponding to arrhythmia, Dose 4 (%): Dose 4 of Table 5: chloroquine or hydroxychloroquine 10 μM, azithromycin alone: no Dose 4 in Table 5"}, "[2]": {"tested_on": "cardiomyocyte multicellular construct (human iPS cell derived cardiomyocytes)", "assay": "Example 8: contractile force of cardiomyocyte multicellular construct, ratio of specimens with halved contractile force", "details": "alone or with azithromycin fixed to 3 μM; for Ratio of specimens whose contractile force decreased to half of that before the addition, Dose 1 (%): Dose 1 of Table 5: azithromycin 1 μM, chloroquine or hydroxychloroquine 0.3 μM; for Ratio of specimens whose contractile force decreased to half of that before the addition, Dose 2 (%): Dose 2 of Table 5: azithromycin 3 μM, chloroquine or hydroxychloroquine 1 μM; for Ratio of specimens whose contractile force decreased to half of that before the addition, Dose 3 (%): Dose 3 of Table 5: azithromycin 10 μM, chloroquine or hydroxychloroquine 3 μM"}, "[3]": {"tested_on": "cardiomyocyte multicellular construct (human iPS cell derived cardiomyocytes)", "assay": "Example 7: calcium imaging evaluation of response of cardiomyocyte multicellular construct against compound", "format": "cell-based", "details": "seventh day of the culture; for Calcium ion signal waveform compared with before the addition: 1000 nM, cumulative addition, 10 minutes after addition; for Beating rate compared with before the addition: cumulative addition 1 to 1000 nM", "method": "Cells were seeded and cultured in the same manner as in Example 6, except that the cells were seeded such that the seeding amount per unit area of the scaffold was 6000 cells/mm^2.\nOn the sixth day of the culture, the cardiomyocyte multicellular construct was placed such that a surface containing more cells faced the bottom surface of a culture dish (IWAKI Multiwell Plate, Non-treated surface for suspension cell culture 6. Well), and was then left to stand for a day. On the seventh day of the culture, a calcium indicator (EarlyTox Cardiotoxicity Kit, Molecular Devices LLC) was added to the culture medium at a volume ratio of 25/100 to fluorescently stain calcium ions in the cardiomyocytes.\nThe fluorescence intensities in the entire 10-fold magnified visual fields of the obtained images were plotted versus time using an analysis software CellPathfinder, Yokogawa Electric Corp.), and thus signal waveforms of calcium ions in the cardiomyocytes were obtained. Verapamil is a Ca channel antagonist having an Ikr inhibitory effect."}, "[4]": {"tested_on": "cardiomyocyte multicellular construct (human iPS cell derived cardiomyocytes)", "assay": "Example 7: contractile force and contraction-relaxation rate of cardiomyocyte multicellular construct (MUSCLEMOTION)", "format": "cell-based", "details": "1000 nM, seventh day of the culture"}, "[5]": {"tested_on": "human iPS cell derived cardiomyocyte multicellular construct", "assay": "Example 5: calcium ion imaging of multicellular construct, response against isoproterenol", "format": "cell-based", "details": "100 nM, 5 minutes after addition, fourth day of the culture; 60 bpm before the addition", "experimental": "Cells were seeded in the same manner as in Example 4, and a liquid culture medium was added 4 hours later to start cell culturing. On the fourth day of the culture, a calcium indicator (EarlyTox Cardiotoxicity Kit, Molecular Devices LLC.) was added to the culture medium at a volume ratio of 5/100 to fluorescently stain calcium ions in the cardiomyocytes.\nVideos were captured at 20 FPS using a confocal imaging confocal imaging system (CellVoyager CQ1, Yokogawa Electric Corp.). Fluorescent areas in the obtained videos were recognized using an analysis software CellPathfinder, Yokogawa Electric Corp.), and signal waveforms of calcium ions in the cardiomyocytes were obtained by plotting the fluorescence intensities versus time."}, "[6]": {"tested_on": "cardiomyocyte multicellular construct (human iPS cell derived cardiomyocytes)"}},
  "note": "Like-named read-outs stand apart in the source and are kept apart here.",
  "data": [
    {"compound": "CCN(CCO)CCCC(C)Nc1ccnc2cc(Cl)ccc12", "note": "(stereo not drawn) [Hydroxychloroquine, hydroxychloroquine]", "values": [
      {"measurement": "Ratio of specimens that exhibited the calcium ion signal waveform corresponding to arrhythmia, Dose 1 (%)", "setting": "[1]", "value": 0, "unit": "%"},
      {"measurement": "Ratio of specimens that exhibited the calcium ion signal waveform corresponding to arrhythmia, Dose 2 (%)", "setting": "[1]", "value": 0, "unit": "%"},
      {"measurement": "Ratio of specimens that exhibited the calcium ion signal waveform corresponding to arrhythmia, Dose 3 (%)", "setting": "[1]", "value": 20, "unit": "%"},
      {"measurement": "Ratio of specimens that exhibited the calcium ion signal waveform corresponding to arrhythmia, Dose 4 (%)", "setting": "[1]", "value": 80, "unit": "%"},
      {"measurement": "Risk of arrhythmia (conclusion from FIG. 20 and Table 6)", "setting": "[1]; concentrations of Table 5", "value": "increase the risk of arrhythmia"},
      {"measurement": "Ratio of specimens whose contractile force decreased to half of that before the addition, Dose 1 (%)", "setting": "[2]", "value": 0, "unit": "%"},
      {"measurement": "Ratio of specimens whose contractile force decreased to half of that before the addition, Dose 2 (%)", "setting": "[2]", "value": 0, "unit": "%"},
      {"measurement": "Ratio of specimens whose contractile force decreased to half of that before the addition, Dose 3 (%)", "setting": "[2]", "value": 20, "unit": "%"},
      {"measurement": "Ratio of specimens whose contractile force decreased to half of that before the addition, Dose 4 (%)", "setting": "[2]; Dose 4 of Table 5: chloroquine or hydroxychloroquine 10 μM", "value": 100, "unit": "%"}
    ]},
    {"compound": "CC[C@H]1OC(=O)[C@H](C)[C@@H](O[C@H]2C[C@@](C)(OC)[C@@H](O)[C@H](C)O2)[C@H](C)[C@@H](O[C@@H]2O[C@H](C)C[C@H](N(C)C)[C@H]2O)[C@](C)(O)C[C@@H](C)CN(C)[C@H](C)[C@@H](O)[C@]1(C)O", "note": "[Azithromycin, azithromycin]", "values": [
      {"measurement": "Ratio of specimens that exhibited the calcium ion signal waveform corresponding to arrhythmia, Dose 1 (%)", "setting": "[1]", "value": 0, "unit": "%"},
      {"measurement": "Ratio of specimens that exhibited the calcium ion signal waveform corresponding to arrhythmia, Dose 2 (%)", "setting": "[1]", "value": 0, "unit": "%"},
      {"measurement": "Ratio of specimens that exhibited the calcium ion signal waveform corresponding to arrhythmia, Dose 3 (%)", "setting": "[1]", "value": 0, "unit": "%"},
      {"measurement": "Ratio of specimens that exhibited the calcium ion signal waveform corresponding to arrhythmia, Dose 4 (%)", "setting": "[1]", "value": 0, "unit": "%"},
      {"measurement": "Ratio of specimens whose contractile force decreased to half of that before the addition, Dose 1 (%)", "setting": "[2]", "value": 0, "unit": "%"},
      {"measurement": "Ratio of specimens whose contractile force decreased to half of that before the addition, Dose 2 (%)", "setting": "[2]", "value": 0, "unit": "%"},
      {"measurement": "Ratio of specimens whose contractile force decreased to half of that before the addition, Dose 3 (%)", "setting": "[2]", "value": 100, "unit": "%"}
    ]},
    {"compound": "COc1ccc(CCN(C)CCCC(C#N)(c2ccc(OC)c(OC)c2)C(C)C)cc1OC", "note": "(stereo not drawn) [Verapamil, verapamil]", "values": [
      {"measurement": "Calcium ion signal waveform compared with before the addition", "setting": "[3]", "value": "became smaller"},
      {"measurement": "Beating rate compared with before the addition", "setting": "[3]", "value": "increased"},
      {"measurement": "Contractile force compared with before the addition", "setting": "[4]", "value": "decreased"},
      {"measurement": "Contraction-relaxation rate compared with before the addition", "setting": "[4]", "value": "decreased"}
    ]},
    {"compound": "CC(C)NCC(O)c1ccc(O)c(O)c1", "note": "(stereo not drawn) [Isoproterenol, isoproterenol]", "values": [
      {"measurement": "Beating rate after the addition", "setting": "[5]", "value": 76, "unit": "bpm"},
      {"measurement": "Calcium ion signal waveform compared with before the addition", "setting": "[3]", "value": "became sharper"},
      {"measurement": "Beating rate compared with before the addition", "setting": "[3]", "value": "increased"},
      {"measurement": "Contractile force compared with before the addition", "setting": "[4]", "value": "increased"},
      {"measurement": "Contraction-relaxation rate compared with before the addition", "setting": "[4]", "value": "increased"}
    ]},
    {"compound": "CCN(CC)CCCC(C)Nc1ccnc2cc(Cl)ccc12", "note": "(stereo not drawn) [Chloroquine, chloroquine]", "values": [
      {"measurement": "Risk of arrhythmia (conclusion from FIG. 20 and Table 6)", "setting": "[6]", "value": "increase the risk of arrhythmia"}
    ]},
    {"compound": "Cc1cccc(CCN2CCC(C(=O)c3ccc(NS(C)(=O)=O)cc3)CC2)n1", "note": "[Example E-4031]", "values": [
      {"measurement": "Calcium ion signal waveform compared with before the addition", "setting": "[3]", "value": "became flattened"},
      {"measurement": "Beating rate compared with before the addition", "setting": "[3]", "value": "decreased"},
      {"measurement": "Contractile force compared with before the addition", "setting": "[4]", "value": "decreased"},
      {"measurement": "Contraction-relaxation rate compared with before the addition", "setting": "[4]", "value": "decreased"}
    ]}
  ]
}
